In brackets after ≈: the same amount, converted by molar mass.
How the values were obtained:
[1] = Selectivity index, ratio of HC50 for hemolytic activity in sheep RBC to MIC for antibacterial activity against methicillin-resistant Staphylococcus aureus assessed as bacterial growth inhibition; type: toxicity; conditions: for Ratio: erythrocytes; for selectivity ratio: sheep red blood cells
[2] = system: Erythrocyte; assay: (§1) Hemolytic activity in sheep RBC assessed as hemolysis incubated for 1 hr by microplate reader method; type: toxicity, cell-based, Ovis aries; conditions: erythrocyte, 1 h
[3] = system: Staphylococcus aureus; assay: Antibacterial activity against methicillin-resistant Staphylococcus aureus assessed as bacterial growth inhibition incubated for 18 hrs by CLSI protocol based Mueller-Hinton broth assay; type: functional
[4] = system: Escherichia coli; assay: Antibacterial activity against Escherichia coli assessed as bacterial growth inhibition incubated for 18 hrs by CLSI protocol based Mueller-Hinton broth assay; type: functional
[5] = system: Enterococcus faecalis; assay: Antibacterial activity against Enterococcus faecalis assessed as bacterial growth inhibition incubated for 18 hrs by CLSI protocol based Mueller-Hinton broth assay; type: functional
[6] = system: Stenotrophomonas maltophilia; assay: Antibacterial activity against Stenotrophomonas maltophilia assessed as bacterial growth inhibition incubated for 18 hrs by CLSI protocol based Mueller-Hinton broth assay; type: functional
[7] = system: Staphylococcus aureus; assay: Antibacterial activity against methicillin-resistant Staphylococcus aureus clinical isolates assessed as bacterial growth inhibition incubated for 18 hrs by CLSI protocol based Mueller-Hinton broth assay; type: functional
[8] = as §1; type: toxicity, cell-based, Ovis aries, Erythrocyte; conditions: sheep red blood cells
[9] = Cytotoxicity against HUVEC cells assessed as reduction in cell viability incubated for 72 hrs by CCK8 assay; type: toxicity, cell-based; conditions: human
[10] = Staphylococcus aureus, read-out: MIC
[11] = Escherichia coli, 18 h, read-out: MIC
[12] = Enterococcus faecalis, 18 h, read-out: MIC
[13] = Stenotrophomonas maltophilia, read-out: MIC

## CCCCCCCCN(CCCOc1ccc2ccccc2c1-c1c(OCCCN(CCCCCCCC)C(=O)[C@@H](N)CCCCN)ccc2ccccc12)C(=O)[C@@H](N)CCCCN.Cl.Cl.Cl.Cl (stereo in doubt; 8r)
[1]
  Ratio: 34
[2]
  HC50: 136 µg/mL
[3]
  MIC: 4 µg/mL
[4]; 18 h
  MIC: 4 µg/mL
[5]
  MIC: 2 µg/mL
[6]
  MIC: 4 µg/mL

## CCCCCCN(CCCOc1cc2ccccc2cc1OCCCN(CCCCCC)C(=O)[C@@H](N)CCCCN)C(=O)[C@@H](N)CCCCN.Cl.Cl.Cl.Cl
[7]
  MIC: 0.5 µg/mL
[1]
  selectivity ratio: > 1000
[8]
  HC50 at 1 h: > 1000 µg/mL
[3]; [10]
  MIC: 1 µg/mL
[4]; [11]
  MIC: 8 µg/mL
[5]; [12]
  MIC: 1 µg/mL
[6]; [13]
  MIC: 4 µg/mL

## CCCCCCN(CCCOc1ccc2c(OCCCN(CCCCCC)C(=O)[C@@H](N)CCCCN)cccc2c1)C(=O)[C@@H](N)CCCN.Cl.Cl.Cl.Cl
[7]
  MIC: 0.5 µg/mL
[1]
  selectivity ratio: 306
[8]
  HC50 at 1 h: 612 µg/mL
[3]; [10]
  MIC: 2 µg/mL
[4]; [11]
  MIC: 2 µg/mL
[5]; [12]
  MIC: 2 µg/mL
[6]; [13]
  MIC: 2 µg/mL

## CC[C@H](C)[C@H](NC(=O)CN)C(=O)NCC(=O)N[C@@H](C)C(=O)N[C@H](C(=O)N[C@@H](CC(C)C)C(=O)N[C@@H](CCCCN)C(=O)N[C@H](C(=O)N[C@@H](CC(C)C)C(=O)N[C@H](C(=O)N[C@H](C(=O)NCC(=O)N[C@@H](CC(C)C)C(=O)N1CCC[C@H]1C(=O)N[C@@H](C)C(=O)N[C@@H](CC(C)C)C(=O)N[C@H](C(=O)N[C@@H](CO)C(=O)N[C@@H](Cc1c[nH]c2ccccc12)C(=O)N[C@H](C(=O)N[C@@H](CCCCN)C(=O)N[C@@H](CCCNC(=N)N)C(=O)N[C@@H](CCCCN)C(=O)N[C@@H](CCCNC(=N)N)C(=O)N[C@@H](CCC(N)=O)C(=O)N[C@@H](CCC(N)=O)C(N)=O)[C@@H](C)CC)[C@@H](C)CC)[C@@H](C)O)[C@@H](C)O)C(C)C)C(C)C [MELITTIN]
[9]
  CC50 at 72 h: 5.8 µg/mL (≈ 2.04 µM)

## CCCCCCCN(CCCOc1ccc(OCCCN(CCCCCCC)C(=O)[C@@H](N)CCCCN)cc1)C(=O)[C@@H](N)CCCCN.Cl.Cl.Cl.Cl
[7]
  MIC: 0.5 µg/mL
[1]
  selectivity ratio: 201
[8]
  HC50 at 1 h: 402 µg/mL
[3]; [10]
  MIC: 2 µg/mL
[4]; [11]
  MIC: 4 µg/mL
[5]; [12]
  MIC: 1 µg/mL
[6]; [13]
  MIC: 2 µg/mL

## CCCCCCCN(CCCOc1ccc2ccccc2c1-c1c(OCCCN(CCCCCCC)C(=O)[C@@H](N)CCCCN)ccc2ccccc12)C(=O)[C@@H](N)CCCCN.Cl.Cl.Cl.Cl (stereo in doubt; 8n)
[1]
  Ratio: 15.5
[2]
  HC50: 31 µg/mL
[3]; [10]
  MIC: 2 µg/mL
[4]; [11]
  MIC: 2 µg/mL
[5]; [12]
  MIC: 2 µg/mL
[6]; [13]
  MIC: 2 µg/mL

## CCCCCCCN(CCCOc1ccc2ccccc2c1-c1c(OCCCN(CCCCCCC)C(=O)[C@@H](N)CCCCN)ccc2ccccc12)C(=O)[C@@H](N)CCCCN.Cl.Cl.Cl.Cl (stereo in doubt; 8q)
[1]
  Ratio: 3.5
[2]
  HC50: 7 µg/mL
[3]
  MIC: 2 µg/mL
[4]
  MIC: 2 µg/mL
[5]; 18 h
  MIC: 1 µg/mL
[6]
  MIC: 2 µg/mL

## CCCCCCCN(CCCOc1cccc(OCCCN(CCCCCCC)C(=O)[C@@H](N)CCCCN)c1)C(=O)[C@@H](N)CCCCN.Cl.Cl.Cl.Cl
[7]
  MIC: 0.5 µg/mL
[1]
  selectivity ratio: 814
[8]
  HC50 at 1 h: 814 µg/mL
[3]; [10]
  MIC: 1 µg/mL
[4]; [11]
  MIC: 2 µg/mL
[5]; [12]
  MIC: 1 µg/mL
[6]; [13]
  MIC: 4 µg/mL

## CCCCCCN(CCCOc1cccc(OCCCN(CCCCCC)C(=O)[C@@H](N)CCCCN)c1)C(=O)[C@@H](N)CCCCN.Cl.Cl.Cl.Cl
[7]
  MIC: 0.5 µg/mL
[1]
  selectivity ratio: > 500
[8]
  HC50 at 1 h: > 1000 µg/mL
[3]; [10]
  MIC: 2 µg/mL
[4]; [11]
  MIC: 16 µg/mL
[5]; [12]
  MIC: 4 µg/mL
[6]; [13]
  MIC: 8 µg/mL

## CCCCCCN(CCCOc1ccc2ccccc2c1-c1c(OCCCN(CCCCCC)C(=O)[C@@H](N)CCCCN)ccc2ccccc12)C(=O)[C@@H](N)CCCCN.Cl.Cl.Cl.Cl (stereo in doubt; 8p)
[1]
  Ratio: 117
[2]
  HC50: 117 µg/mL
[3]
  MIC: 1 µg/mL
[4]
  MIC: 2 µg/mL
[5]
  MIC: 1 µg/mL
[6]
  MIC: 1 µg/mL

## C=C[C@]1(C)C[C@@H](OC(=O)CS[C@@H]2C[C@H]3CC[C@@H](C2)N3C)[C@]2(C)[C@H](C)CC[C@]3(CCC(=O)[C@H]32)[C@@H](C)[C@@H]1O [RETAPAMULIN]
[9]
  CC50 at 72 h: 25.5 µg/mL (≈ 49.2 µM)

## CCCCCCN(CCCCOc1ccc(OCCCCN(CCCCCC)C(=O)[C@@H](N)CCCCN)cc1)C(=O)[C@@H](N)CCCCN.Cl.Cl.Cl.Cl
[7]
  MIC: 0.5 µg/mL
[1]
  selectivity ratio: 217
[8]
  HC50 at 1 h: 868 µg/mL
[3]; [10]
  MIC: 4 µg/mL
[4]; [11]
  MIC: 4 µg/mL
[5]; [12]
  MIC: 4 µg/mL
[6]; [13]
  MIC: 4 µg/mL

## CCCCCCN(CCCOc1ccc(OCCCN(CCCCCC)C(=O)[C@@H](N)CCCCN)cc1)C(=O)[C@@H](N)CCCCN.Cl.Cl.Cl.Cl
[7]
  MIC: 0.5 µg/mL
[1]
  selectivity ratio: > 250
[8]
  HC50 at 1 h: > 1000 µg/mL
[3]; [10]
  MIC: 4 µg/mL
[4]; [11]
  MIC: 16 µg/mL
[5]; [12]
  MIC: 4 µg/mL
[6]; [13]
  MIC: 16 µg/mL

## CCCCCCCCN(CCOc1ccc(OCCN(CCCCCCCC)C(=O)[C@@H](N)CCCCN)cc1)C(=O)[C@@H](N)CCCCN.Cl.Cl.Cl.Cl
[1]
  selectivity ratio: 93
[8]
  HC50 at 1 h: 93 µg/mL
[3]; [10]
  MIC: 1 µg/mL
[4]; [11]
  MIC: 2 µg/mL
[5]; [12]
  MIC: 0.5 µg/mL
[6]; [13]
  MIC: 1 µg/mL

## CCCCCCCCCN(CCOc1ccc(OCCN(CCCCCCCCC)C(=O)[C@@H](N)CCCCN)cc1)C(=O)[C@@H](N)CCCCN.Cl.Cl.Cl.Cl
[1]
  selectivity ratio: 10.5
[8]
  HC50 at 1 h: 21 µg/mL
[3]; [10]
  MIC: 2 µg/mL
[4]; [11]
  MIC: 2 µg/mL
[5]; [12]
  MIC: 1 µg/mL
[6]; [13]
  MIC: 2 µg/mL

## CCCCCCCCCCN(CCOc1ccc(OCCN(CCCCCCCCCC)C(=O)[C@@H](N)CCCCN)cc1)C(=O)[C@@H](N)CCCCN.Cl.Cl.Cl.Cl
[1]
  selectivity ratio: < 0.625
[8]
  HC50 at 1 h: < 2.5 µg/mL
[3]; [10]
  MIC: 4 µg/mL
[4]; [11]
  MIC: 4 µg/mL
[5]; [12]
  MIC: 2 µg/mL
[6]; [13]
  MIC: 2 µg/mL

## CCCCCCCN(CCCOc1ccccc1OCCCN(CCCCCCC)C(=O)[C@@H](N)CCCCN)C(=O)[C@@H](N)CCCCN.Cl.Cl.Cl.Cl
[7]
  MIC: 0.5 µg/mL
[1]
  selectivity ratio: > 500
[8]
  HC50 at 1 h: > 1000 µg/mL
[3]; [10]
  MIC: 2 µg/mL
[4]; [11]
  MIC: 16 µg/mL
[5]; [12]
  MIC: 1 µg/mL
[6]; [13]
  MIC: 8 µg/mL

## CCCCCCCN(CCOc1ccc(OCCN(CCCCCCC)C(=O)[C@@H](N)CCCCN)cc1)C(=O)[C@@H](N)CCCCN.Cl.Cl.Cl.Cl
[7]
  MIC: 0.5 µg/mL
[1]
  selectivity ratio: 478
[8]
  HC50 at 1 h: 478 µg/mL
[3]; [10]
  MIC: 1 µg/mL
[4]; [11]
  MIC: 4 µg/mL
[5]; [12]
  MIC: 1 µg/mL
[6]; [13]
  MIC: 2 µg/mL

## CCCCCCCCCN(CCCOc1ccc(OCCCN(CCCCCCCCC)C(=O)[C@@H](N)CCCCN)cc1)C(=O)[C@@H](N)CCCCN.Cl.Cl.Cl.Cl
[1]
  selectivity ratio: 10.5
[8]
  HC50 at 1 h: 11 µg/mL
[3]; [10]
  MIC: 2 µg/mL
[4]; [11]
  MIC: 2 µg/mL
[5]; [12]
  MIC: 1 µg/mL
[6]; [13]
  MIC: 1 µg/mL
